Reference: the NIST ThermoML archive (doi:10.1016/j.fluid.2017.12.026)
Several values for one entry are separate records, joined by “and”; a condition that tells them apart may be missing. Equal values may be shown once. ± gives the expanded uncertainty stated by the source.

Details: Gas, Coaxial cylinder method

Work on `CCCCC` [pentane] yielded a thermal conductivity (478.5 K, 46675 kPa) of 0.1028 ± 0.0038 W/m/K, a thermal conductivity (479.9 K, 100 kPa) of 0.03642 ± 0.0013 W/m/K and a thermal conductivity (482.02 K, 100 kPa) of 0.03645 ± 0.0013 W/m/K. For the same molecule, the thermal conductivity (482.02 K, 2180 kPa) was 0.03995 ± 0.0014 W/m/K, the thermal conductivity (484.5 K, 7555 kPa) was 0.07149 ± 0.0025 W/m/K and the thermal conductivity (484.5 K, 10055 kPa) was 0.0768 ± 0.0027 W/m/K. The thermal conductivity (484.5 K, 19975 kPa) was 0.08666 ± 0.0031 W/m/K, the thermal conductivity (484.5 K, 25175 kPa) was 0.09003 ± 0.0032 W/m/K and the thermal conductivity (484.5 K, 27775 kPa) was 0.09214 ± 0.0033 W/m/K. For the same molecule, the thermal conductivity (485.84 K, 1820 kPa) was 0.03954 ± 0.0014 W/m/K, the thermal conductivity (485.84 K, 1830 kPa) was 0.03953 ± 0.0014 W/m/K and the thermal conductivity (485.84 K, 1886 kPa) was 0.03962 ± 0.0014 W/m/K. It also gave a thermal conductivity (485.84 K, 2000 kPa) of 0.04018 ± 0.0014 W/m/K, a thermal conductivity (485.84 K, 2180 kPa) of 0.04056 ± 0.0014 W/m/K and a thermal conductivity (485.84 K, 2260 kPa) of 0.04079 ± 0.0014 W/m/K. For the same molecule, the thermal conductivity (485.84 K, 2280 kPa) was 0.04036 ± 0.0014 W/m/K, the thermal conductivity (485.84 K, 2300 kPa) was 0.04075 ± 0.0014 W/m/K and the thermal conductivity (485.84 K, 2560 kPa) was 0.04155 ± 0.0014 W/m/K. The thermal conductivity (487.28 K, 1820 kPa) was 0.03982 ± 0.0014 W/m/K, the thermal conductivity (487.3 K, 100 kPa) was 0.03739 ± 0.0013 W/m/K and the thermal conductivity (497.3 K, 988 kPa) was 0.03935 ± 0.0014 W/m/K. It also gave a thermal conductivity (497.3 K, 2518 kPa) of 0.04191 ± 0.0015 W/m/K, a thermal conductivity (497.3 K, 9975 kPa) of 0.07419 ± 0.0026 W/m/K and a thermal conductivity (497.3 K, 19975 kPa) of 0.08618 ± 0.003 W/m/K. The thermal conductivity (497.3 K, 30375 kPa) was 0.09354 ± 0.0034 W/m/K, the thermal conductivity (497.3 K, 40275 kPa) was 0.09941 ± 0.0037 W/m/K and the thermal conductivity (497.3 K, 49575 kPa) was 0.1037 ± 0.0039 W/m/K. It also gave a thermal conductivity (497.65 K, 100 kPa) of 0.03875 ± 0.0014 W/m/K, a thermal conductivity (500.96 K, 100 kPa) of 0.03915 ± 0.0014 W/m/K and a thermal conductivity (523 K, 988 kPa) of 0.0425 ± 0.0015 W/m/K. The thermal conductivity (523 K, 2508 kPa) was 0.04516 ± 0.0016 W/m/K, the thermal conductivity (523 K, 17975 kPa) was 0.0821 ± 0.0029 W/m/K and the thermal conductivity (523 K, 20175 kPa) was 0.08444 ± 0.003 W/m/K. It also gave a thermal conductivity (523 K, 25475 kPa) of 0.0885 ± 0.0032 W/m/K, a thermal conductivity (523 K, 30475 kPa) of 0.09129 ± 0.0033 W/m/K and a thermal conductivity (523 K, 40175 kPa) of 0.09665 ± 0.0036 W/m/K. It also gave a thermal conductivity (523 K, 43475 kPa) of 0.09824 ± 0.0036 W/m/K, a thermal conductivity (523 K, 49975 kPa) of 0.1014 ± 0.0038 W/m/K and a thermal conductivity (526.4 K, 2200 kPa) of 0.04473 ± 0.0016 W/m/K. The thermal conductivity (526.4 K, 2300 kPa) was 0.0457 ± 0.0016 W/m/K, the thermal conductivity (526.4 K, 2400 kPa) was 0.0457 ± 0.0016 W/m/K and the thermal conductivity (526.4 K, 2500 kPa) was 0.0457 ± 0.0016 W/m/K. It also gave a thermal conductivity (526.4 K, 2600 kPa) of 0.04565 ± 0.0016 W/m/K, a thermal conductivity (526.4 K, 2700 kPa) of 0.0456 ± 0.0016 W/m/K and a thermal conductivity (526.4 K, 2800 kPa) of 0.04599 ± 0.0016 W/m/K. The thermal conductivity (526.4 K, 2900 kPa) was 0.0465 ± 0.0016 W/m/K, the thermal conductivity (526.4 K, 3000 kPa) was 0.04712 ± 0.0016 W/m/K and the thermal conductivity (526.4 K, 3300 kPa) was 0.04771 ± 0.0017 W/m/K. For the same molecule, the thermal conductivity (526.4 K, 3600 kPa) was 0.04853 ± 0.0017 W/m/K, the thermal conductivity (526.4 K, 3700 kPa) was 0.04799 ± 0.0017 W/m/K and the thermal conductivity (526.4 K, 3800 kPa) was 0.04888 ± 0.0017 W/m/K. The thermal conductivity (526.54 K, 2200 kPa) was 0.04492 ± 0.0016 W/m/K, the thermal conductivity (526.57 K, 100 kPa) was 0.04253 ± 0.0015 W/m/K and the thermal conductivity (576.1 K, 100 kPa) was 0.04957 ± 0.0017 W/m/K. It also gave a thermal conductivity (576.1 K, 988 kPa) of 0.05094 ± 0.0018 W/m/K, a thermal conductivity (576.1 K, 2417 kPa) of 0.05148 ± 0.0018 W/m/K and a thermal conductivity (576.1 K, 2508 kPa) of 0.05179 ± 0.0018 W/m/K. The thermal conductivity (576.1 K, 4048 kPa) was 0.05495 ± 0.0019 W/m/K, the thermal conductivity (576.1 K, 20475 kPa) was 0.08464 ± 0.003 W/m/K and the thermal conductivity (576.1 K, 22475 kPa) was 0.08627 ± 0.0031 W/m/K. The thermal conductivity (576.1 K, 30275 kPa) was 0.09057 ± 0.0033 W/m/K, the thermal conductivity (576.1 K, 30575 kPa) was 0.09 ± 0.0032 W/m/K and the thermal conductivity (576.1 K, 40175 kPa) was 0.09709 ± 0.0036 W/m/K. It also gave a thermal conductivity (576.1 K, 40975 kPa) of 0.09601 ± 0.0035 W/m/K, a thermal conductivity (576.1 K, 51275 kPa) of 0.1023 ± 0.0039 W/m/K and a thermal conductivity (618.2 K, 7584 kPa) of 0.06457 ± 0.0022 W/m/K. The thermal conductivity (618.2 K, 9985 kPa) was 0.06826 ± 0.0024 W/m/K, the thermal conductivity (618.2 K, 11475 kPa) was 0.07159 ± 0.0025 W/m/K and the thermal conductivity (618.2 K, 12945 kPa) was 0.07331 ± 0.0026 W/m/K. The thermal conductivity (618.2 K, 12985 kPa) was 0.07397 ± 0.0026 W/m/K, the thermal conductivity (618.2 K, 14975 kPa) was 0.07629 ± 0.0027 W/m/K and the thermal conductivity (618.2 K, 18875 kPa) was 0.08227 ± 0.0029 W/m/K and 0.08277 ± 0.0029 W/m/K. For the same molecule, the thermal conductivity (621.2 K, 100 kPa) was 0.05581 ± 0.0019 W/m/K, the thermal conductivity (621.2 K, 10375 kPa) was 0.06836 ± 0.0024 W/m/K and the thermal conductivity (621.2 K, 15375 kPa) was 0.07737 ± 0.0027 W/m/K. For the same molecule, the thermal conductivity (621.2 K, 20275 kPa) was 0.08383 ± 0.003 W/m/K, the thermal conductivity (621.2 K, 22975 kPa) was 0.08581 ± 0.0031 W/m/K and the thermal conductivity (621.2 K, 30175 kPa) was 0.09232 ± 0.0033 W/m/K. The thermal conductivity (621.2 K, 39275 kPa) was 0.09614 ± 0.0035 W/m/K, the thermal conductivity (621.2 K, 40375 kPa) was 0.09714 ± 0.0036 W/m/K and the thermal conductivity (621.2 K, 49975 kPa) was 0.1015 ± 0.0038 W/m/K. It also gave a thermal conductivity (621.2 K, 53675 kPa) of 0.1031 ± 0.0039 W/m/K and a thermal conductivity (621.2 K, 53975 kPa) of 0.103 ± 0.0039 W/m/K.
